Residues, ends and D or L forms follow the SMILES beside them.
target: HLA-DR0901 protein (Homo sapiens, UniProt P01903+P01911, A100R/A103E/D57H/D86V/F55Y/F60I/F76Y/I96F/K127E/L162R/M171V/P40D/Q125H/Q99R/R33Q/R42F/S133A/S66N/T210M/V115G/W38K/Y107V/Y59G/Y89S); assay: Peptide binding competition assay, DR0901

For `CC[C@H](C)[C@H](NC(=O)[C@H](CCCCN)NC(=O)[C@H](CC(=O)O)NC(=O)[C@H](CC(C)C)NC(=O)[C@H](CO)NC(=O)[C@H](Cc1ccc(O)cc1)NC(=O)[C@H](CC(N)=O)NC(=O)[C@H](Cc1ccccc1)NC(=O)[C@H](CC(N)=O)NC(=O)[C@@H](N)CC(C)C)C(=O)N[C@@H](CC(C)C)C(=O)N[C@H](C(=O)N[C@@H](CC(=O)O)C(=O)O)C(C)C` [LNFNYSLDKILVD] (H-LNFNYSLDKILVD-OH), which Kd is on record?
The Kd was 330 ± 68 nM.

For `CC[C@H](C)[C@H](NC(=O)[C@H](CCCCN)NC(=O)[C@H](CC(=O)O)NC(=O)[C@H](CC(C)C)NC(=O)[C@H](CO)NC(=O)[C@H](Cc1ccc(O)cc1)NC(=O)[C@H](CC(N)=O)NC(=O)[C@H](Cc1ccccc1)NC(=O)[C@H](CC(N)=O)NC(=O)[C@@H](N)CC(C)C)C(=O)N[C@@H](CCSC)C(=O)N[C@H](C(=O)N[C@@H](CC(=O)O)C(=O)O)C(C)C` [LNFNYSLDKIMVD] (H-LNFNYSLDKIMVD-OH), which Kd is on record?
The Kd was 280 ± 61 nM.

For `CC[C@H](C)[C@H](NC(=O)[C@H](CCCCN)NC(=O)[C@H](CC(=O)O)NC(=O)[C@H](CC(C)C)NC(=O)[C@H](CO)NC(=O)[C@H](Cc1ccc(O)cc1)NC(=O)[C@H](CC(N)=O)NC(=O)[C@H](Cc1ccccc1)NC(=O)[C@H](CC(N)=O)NC(=O)[C@@H](N)CC(C)C)C(=O)N[C@@H](CC(N)=O)C(=O)N[C@H](C(=O)N[C@@H](CC(=O)O)C(=O)O)C(C)C` [LNFNYSLDKINVD] (H-LNFNYSLDKINVD-OH), which Kd is on record?
Its Kd is 2600 nM.

With `CC[C@H](C)[C@H](NC(=O)[C@H](CCCCN)NC(=O)[C@H](CC(=O)O)NC(=O)[C@H](CC(C)C)NC(=O)[C@H](CO)NC(=O)[C@H](Cc1ccc(O)cc1)NC(=O)[C@H](CC(N)=O)NC(=O)[C@H](Cc1ccccc1)NC(=O)[C@H](CC(N)=O)NC(=O)[C@@H](N)CC(C)C)C(=O)N1CCC[C@H]1C(=O)N[C@H](C(=O)N[C@@H](CC(=O)O)C(=O)O)C(C)C` [LNFNYSLDKIPVD] (H-LNFNYSLDKIPVD-OH) as the compound, how does the Kd read?
Its Kd is 1700 nM.

How did the Kd turn out when `CC[C@H](C)[C@H](NC(=O)[C@H](CCCCN)NC(=O)[C@H](CC(=O)O)NC(=O)[C@H](CC(C)C)NC(=O)[C@H](CO)NC(=O)[C@H](Cc1ccc(O)cc1)NC(=O)[C@H](CC(N)=O)NC(=O)[C@H](Cc1ccccc1)NC(=O)[C@H](CC(N)=O)NC(=O)[C@@H](N)CC(C)C)C(=O)N[C@@H](CCCNC(=N)N)C(=O)N[C@H](C(=O)N[C@@H](CC(=O)O)C(=O)O)C(C)C` [LNFNYSLDKIRVD] (H-LNFNYSLDKIRVD-OH) was run?
The Kd was 6700 nM.

How did the Kd turn out when `CC[C@H](C)[C@H](NC(=O)[C@H](CCCCN)NC(=O)[C@H](CC(=O)O)NC(=O)[C@H](CC(C)C)NC(=O)[C@H](CO)NC(=O)[C@H](Cc1ccc(O)cc1)NC(=O)[C@H](CC(N)=O)NC(=O)[C@H](Cc1ccccc1)NC(=O)[C@H](CC(N)=O)NC(=O)[C@@H](N)CC(C)C)C(=O)N[C@@H](CO)C(=O)N[C@H](C(=O)N[C@@H](CC(=O)O)C(=O)O)C(C)C` [LNFNYSLDKISVD] (H-LNFNYSLDKISVD-OH) was run?
The Kd was 770 ± 100 nM.

How did the Kd turn out when `CC[C@H](C)[C@H](NC(=O)[C@H](CCCCN)NC(=O)[C@H](CC(=O)O)NC(=O)[C@H](CC(C)C)NC(=O)[C@H](CO)NC(=O)[C@H](Cc1ccc(O)cc1)NC(=O)[C@H](CC(N)=O)NC(=O)[C@H](Cc1ccccc1)NC(=O)[C@H](CC(N)=O)NC(=O)[C@@H](N)CC(C)C)C(=O)N[C@@H](Cc1c[nH]c2ccccc12)C(=O)N[C@H](C(=O)N[C@@H](CC(=O)O)C(=O)O)C(C)C` [LNFNYSLDKIWVD] (H-LNFNYSLDKIWVD-OH) was run?
The Kd was 530 ± 50 nM.

How did the Kd turn out when `CC[C@H](C)[C@H](NC(=O)[C@H](CCCCN)NC(=O)[C@H](CC(=O)O)NC(=O)[C@H](CC(C)C)NC(=O)[C@H](CO)NC(=O)[C@H](Cc1ccc(O)cc1)NC(=O)[C@H](CC(N)=O)NC(=O)[C@H](Cc1ccccc1)NC(=O)[C@H](CC(N)=O)NC(=O)[C@@H](N)CC(C)C)C(=O)N[C@@H](Cc1ccc(O)cc1)C(=O)N[C@H](C(=O)N[C@@H](CC(=O)O)C(=O)O)C(C)C` [LNFNYSLDKIYVD] (H-LNFNYSLDKIYVD-OH) was run?
The Kd was 240 ± 33 nM.

Which Kd does the source give for `CC[C@H](C)[C@H](NC(=O)[C@H](CCSC)NC(=O)[C@H](CC(=O)O)NC(=O)[C@H](CC(C)C)NC(=O)[C@H](CO)NC(=O)[C@H](Cc1ccc(O)cc1)NC(=O)[C@H](CC(N)=O)NC(=O)[C@H](Cc1ccccc1)NC(=O)[C@H](CC(N)=O)NC(=O)[C@@H](N)CC(C)C)C(=O)N[C@H](C(=O)N[C@H](C(=O)N[C@@H](CC(=O)O)C(=O)O)C(C)C)[C@@H](C)CC` [LNFNYSLDMIIVD] (H-LNFNYSLDMIIVD-OH) here?
The Kd was 24 ± 5 nM.

With `CC[C@H](C)[C@H](NC(=O)[C@H](CC(N)=O)NC(=O)[C@H](CC(=O)O)NC(=O)[C@H](CC(C)C)NC(=O)[C@H](CO)NC(=O)[C@H](Cc1ccc(O)cc1)NC(=O)[C@H](CC(N)=O)NC(=O)[C@H](Cc1ccccc1)NC(=O)[C@H](CC(N)=O)NC(=O)[C@@H](N)CC(C)C)C(=O)N[C@H](C(=O)N[C@H](C(=O)N[C@@H](CC(=O)O)C(=O)O)C(C)C)[C@@H](C)CC` [LNFNYSLDNIIVD] (H-LNFNYSLDNIIVD-OH) as the compound, how does the Kd read?
The Kd was 27 ± 1 nM.

With `CC[C@H](C)[C@H](NC(=O)[C@@H](NC(=O)[C@@H]1CCCN1C(=O)[C@H](CC(=O)O)NC(=O)[C@H](CC(C)C)NC(=O)[C@H](CO)NC(=O)[C@H](Cc1ccc(O)cc1)NC(=O)[C@H](CC(N)=O)NC(=O)[C@H](Cc1ccccc1)NC(=O)[C@H](CC(N)=O)NC(=O)[C@@H](N)CC(C)C)[C@@H](C)CC)C(=O)N[C@H](C(=O)N[C@@H](CC(=O)O)C(=O)O)C(C)C` [LNFNYSLDPIIVD] (H-LNFNYSLDPIIVD-OH) as the compound, how does the Kd read?
The Kd was 36 ± 12 nM.

`CC[C@H](C)[C@H](NC(=O)[C@H](CCCNC(=N)N)NC(=O)[C@H](CC(=O)O)NC(=O)[C@H](CC(C)C)NC(=O)[C@H](CO)NC(=O)[C@H](Cc1ccc(O)cc1)NC(=O)[C@H](CC(N)=O)NC(=O)[C@H](Cc1ccccc1)NC(=O)[C@H](CC(N)=O)NC(=O)[C@@H](N)CC(C)C)C(=O)N[C@H](C(=O)N[C@H](C(=O)N[C@@H](CC(=O)O)C(=O)O)C(C)C)[C@@H](C)CC` [LNFNYSLDRIIVD] (H-LNFNYSLDRIIVD-OH) was tested. Which Kd did it give?
Its Kd is 53 ± 10 nM.

For `CC[C@H](C)[C@H](NC(=O)[C@H](CO)NC(=O)[C@H](CC(=O)O)NC(=O)[C@H](CC(C)C)NC(=O)[C@H](CO)NC(=O)[C@H](Cc1ccc(O)cc1)NC(=O)[C@H](CC(N)=O)NC(=O)[C@H](Cc1ccccc1)NC(=O)[C@H](CC(N)=O)NC(=O)[C@@H](N)CC(C)C)C(=O)N[C@H](C(=O)N[C@H](C(=O)N[C@@H](CC(=O)O)C(=O)O)C(C)C)[C@@H](C)CC` [LNFNYSLDSIIVD] (H-LNFNYSLDSIIVD-OH), which Kd is on record?
The Kd was 110 ± 45 nM.

For `CC[C@H](C)[C@H](NC(=O)[C@H](Cc1ccc(O)cc1)NC(=O)[C@H](CC(=O)O)NC(=O)[C@H](CC(C)C)NC(=O)[C@H](CO)NC(=O)[C@H](Cc1ccc(O)cc1)NC(=O)[C@H](CC(N)=O)NC(=O)[C@H](Cc1ccccc1)NC(=O)[C@H](CC(N)=O)NC(=O)[C@@H](N)CC(C)C)C(=O)N[C@H](C(=O)N[C@H](C(=O)N[C@@H](CC(=O)O)C(=O)O)C(C)C)[C@@H](C)CC` [LNFNYSLDYIIVD] (H-LNFNYSLDYIIVD-OH), which Kd is on record?
The Kd was 41 ± 10 nM.

With `CC[C@H](C)[C@H](NC(=O)[C@H](CCCCN)NC(=O)[C@H](Cc1c[nH]cn1)NC(=O)[C@H](CC(C)C)NC(=O)[C@H](CO)NC(=O)[C@H](Cc1ccc(O)cc1)NC(=O)[C@H](CC(N)=O)NC(=O)[C@H](Cc1ccccc1)NC(=O)[C@H](CC(N)=O)NC(=O)[C@@H](N)CC(C)C)C(=O)N[C@H](C(=O)N[C@H](C(=O)N[C@@H](CC(=O)O)C(=O)O)C(C)C)[C@@H](C)CC` [LNFNYSLHKIIVD] (H-LNFNYSLHKIIVD-OH) as the compound, how does the Kd read?
Its Kd is 87 ± 8 nM.

With `CC[C@H](C)[C@H](NC(=O)[C@H](CCCCN)NC(=O)[C@H](CC(C)C)NC(=O)[C@H](CC(C)C)NC(=O)[C@H](CO)NC(=O)[C@H](Cc1ccc(O)cc1)NC(=O)[C@H](CC(N)=O)NC(=O)[C@H](Cc1ccccc1)NC(=O)[C@H](CC(N)=O)NC(=O)[C@@H](N)CC(C)C)C(=O)N[C@H](C(=O)N[C@H](C(=O)N[C@@H](CC(=O)O)C(=O)O)C(C)C)[C@@H](C)CC` [LNFNYSLLKIIVD] (H-LNFNYSLLKIIVD-OH) as the compound, how does the Kd read?
Its Kd is 67 ± 8 nM.

Which Kd does the source give for `CC[C@H](C)[C@H](NC(=O)[C@H](CCCCN)NC(=O)[C@H](CCSC)NC(=O)[C@H](CC(C)C)NC(=O)[C@H](CO)NC(=O)[C@H](Cc1ccc(O)cc1)NC(=O)[C@H](CC(N)=O)NC(=O)[C@H](Cc1ccccc1)NC(=O)[C@H](CC(N)=O)NC(=O)[C@@H](N)CC(C)C)C(=O)N[C@H](C(=O)N[C@H](C(=O)N[C@@H](CC(=O)O)C(=O)O)C(C)C)[C@@H](C)CC` [LNFNYSLMKIIVD] (H-LNFNYSLMKIIVD-OH) here?
Its Kd is 46 ± 2 nM.

How did the Kd turn out when `CC[C@H](C)[C@H](NC(=O)[C@H](CCCCN)NC(=O)[C@H](CC(N)=O)NC(=O)[C@H](CC(C)C)NC(=O)[C@H](CO)NC(=O)[C@H](Cc1ccc(O)cc1)NC(=O)[C@H](CC(N)=O)NC(=O)[C@H](Cc1ccccc1)NC(=O)[C@H](CC(N)=O)NC(=O)[C@@H](N)CC(C)C)C(=O)N[C@H](C(=O)N[C@H](C(=O)N[C@@H](CC(=O)O)C(=O)O)C(C)C)[C@@H](C)CC` [LNFNYSLNKIIVD] (H-LNFNYSLNKIIVD-OH) was run?
Its Kd is 93 ± 19 nM.

For `CC[C@H](C)[C@H](NC(=O)[C@H](CCCCN)NC(=O)[C@@H]1CCCN1C(=O)[C@H](CC(C)C)NC(=O)[C@H](CO)NC(=O)[C@H](Cc1ccc(O)cc1)NC(=O)[C@H](CC(N)=O)NC(=O)[C@H](Cc1ccccc1)NC(=O)[C@H](CC(N)=O)NC(=O)[C@@H](N)CC(C)C)C(=O)N[C@H](C(=O)N[C@H](C(=O)N[C@@H](CC(=O)O)C(=O)O)C(C)C)[C@@H](C)CC` [LNFNYSLPKIIVD] (H-LNFNYSLPKIIVD-OH), which Kd is on record?
The Kd was 31 ± 2 nM.

Which Kd does the source give for `CC[C@H](C)[C@H](NC(=O)[C@H](CCCCN)NC(=O)[C@H](CCCNC(=N)N)NC(=O)[C@H](CC(C)C)NC(=O)[C@H](CO)NC(=O)[C@H](Cc1ccc(O)cc1)NC(=O)[C@H](CC(N)=O)NC(=O)[C@H](Cc1ccccc1)NC(=O)[C@H](CC(N)=O)NC(=O)[C@@H](N)CC(C)C)C(=O)N[C@H](C(=O)N[C@H](C(=O)N[C@@H](CC(=O)O)C(=O)O)C(C)C)[C@@H](C)CC` [LNFNYSLRKIIVD] (H-LNFNYSLRKIIVD-OH) here?
The Kd was 130 ± 19 nM.

For `CC[C@H](C)[C@H](NC(=O)[C@H](CCCCN)NC(=O)[C@H](CO)NC(=O)[C@H](CC(C)C)NC(=O)[C@H](CO)NC(=O)[C@H](Cc1ccc(O)cc1)NC(=O)[C@H](CC(N)=O)NC(=O)[C@H](Cc1ccccc1)NC(=O)[C@H](CC(N)=O)NC(=O)[C@@H](N)CC(C)C)C(=O)N[C@H](C(=O)N[C@H](C(=O)N[C@@H](CC(=O)O)C(=O)O)C(C)C)[C@@H](C)CC` [LNFNYSLSKIIVD] (H-LNFNYSLSKIIVD-OH), which Kd is on record?
Its Kd is 31 ± 3 nM.

Source: article PMC4061985 (Journal of immunology (Baltimore, Md. : 1950), 2009)
